Read-outs that look alike come from different tables or passages of the source.
Columns and labels:
[1] = Cytotoxicity in macrophage cell line by the MTT method (colorimetric); type: cell-based; conditions: mouse
Method: The cytotoxicity against a cell line of macrophages (Raw 264.7) of GAL, MO, FI, RU, EGCG, PE, MI and MA was determined by the MTT method. Cells (3.3 x 10^5/ml) cells were treated with different concentrations of each compound during 48 h at 37°C, 5% CO2. The controls were incubated with RPMI-1640 medium. Briefly, 50 µl of MTT (2 mg/mL) was added to each well and, after 4 h of incubation at 37°C, 5% CO2, the reaction was stopped dissolving the formazan crystals with 100 µl/well of dimethyl sulfoxide. The relative amount of formazan produced by viable macrophages was determined using a spectrophotometer at 595 nm. The percentage of viable cells was calculated according to the formula (OD treated culture−OD blank)/(OD control−OD blank) ×100 as was described previously ([Adinehbeigi et al., 2017]). The cytotoxicity concentration 50% (CC50) was calculated for each compound.

[2] = tested on: promastigotes of L. amaz/tc3; experiment: Fluorescence assay against promastigotes of L. amaz/tc3 (tdTomato); type: cell-based, Leishmania (Leishmania) amazonensis; conditions: 48 h; for IC50: Leishmania; for Inhibition of parasite growth (promastigotes): doses ≤ 40 µM, fluorescence assay
Method: Then, we evaluated the efficacy of MI, a reference drug for leishmaniasis by the fluorescence method (L. amaz/tc3) and by the conventional method based in counting the parasite at the optic microscope (L. amaz/wt). Mid-log promastigotes of L. amaz/tc3 and L. amaz/wt were harvest and seeded (1 x 10^6/0.1 ml) with different concentrations of MI (40 to 0.6 µg/ml) in a 96-well plate at 23°C. Promastigotes cultured only in medium were the controls. Parasite viability was determined by measuring the fluorescence of L. amaz/tc3 in a plate reader (Tecan, Männedorf, Switzerland) and by counting the mobile promastigotes in a Neubauer chamber at the optic microscope (40x) (Leitz Wetzlar, Germany) at 48 h of incubation with MI. Viability was calculated with the formula: ViabilityL.amaz/tc3 =FLt/FLc×100 where, FLt is the fluorescence of treated culture, and FLc is the fluorescence of control; ViabilityL.amaz/wt=NPt/NPc×100 where, NPt is the number of promastigotes in the treated culture, and NPc is the number of promastigotes in control culture. Then, the 50% inhibitory concentration (IC50) of MI was estimated.
After fluorescence assay validation as it is described above, the method was used to evaluate in vitro the flavonoids anti-leishmanial activity. Mid-log promastigotes of L. amaz/tc3 were harvest and seeded with different concentrations of GAL (1,200 to 18.75 µM), MO, FI and RU (40 to 1.25 µM), and EGCG (300 to 18.75 µM). Positive control were promastigotes treated with PE (4 to 0.25 µM), the negative control were promastigotes cultured with medium only, and the blank was the culture medium. The parasites were incubated at 23°C for 48 h. The anti-leishmanial activity was determined by measuring the parasite fluorescence in a plate reader (Tecan, Männedorf, Switzerland). The viability was estimated as was described above for MI (fluorescent assay). The IC50 was calculated for each compound.

[3] = tested on: promastigotes of L. amaz/tc3; experiment: Transmission electron microscopy of treated promastigotes; type: cell-based, Leishmania (Leishmania) amazonensis; conditions: exposed to the IC50, 48 h
Method: Ultrastructural alterations in Leishmania induced by flavonoids with anti-leishmanial activity were analyzed by transmission electron microscopy (TEM). […] The control was a culture of L. amaz/tc3 incubated in complete RPMI-1640 medium. After 48 h of incubation, samples of L. amaz/tc3 promastigotes from each culture were fixed in modified Karnovsky’s solution (formaldehyde [2.66%], glutaraldehyde [1.66%]) and PBS 0.1M (pH 7,4), and incubated overnight at 4°C. The fixed samples were post-fixed with a 1/1 solution of PBS/2% osmium tetroxide (OsO4), overnight. Then the material was dehydrated and included in Spurr (Pelco, USA). Ultrathin sections were cut with an ultramicrotome (MT1, Sorvall, USA), mounted on copper grids, and contrasted with uranyl acetate (PELCO, USA) and lead citrate.

[4] = tested on: intracellular amastigotes of L. (L.) amazonensis; experiment: Microscopic assay, counting intracellular amastigotes in Raw 264.7 macrophages at the optic microscope; type: cell-based, Leishmania (Leishmania) amazonensis; conditions: for SI (Selectivity index): CC50 for macrophages/IC50 for Leishmania (intracellular amastigotes; Ma from fluorescence IC50); for IC50: Leishmania amazonensis, RAW264.7, Raw 264.7 macrophages, 48 h, optic microscope, read-out: Microscopic IC50 μM (SE), intracellular amastigotes
Method: (§1) Furthermore, the efficacy of MI was also determined against intracellular amastigotes of L. amaz/tc3 and L. amaz/wt. Raw 264.7 macrophages were plated in 96-well black plate (5 x 10^4 cells/well) and in eight well Lab-Tek tissue culture slides (6.6 x 10^4 cells/ml) (Nunc, USA). The cells were infected with promastigotes in stationary phase of L. amaz/tc3 and L. amaz/wt (1:20 ratio) at 33°C, 5% CO2. After incubation, the infected macrophages were washed to remove non-internalized parasites with PBS plus P-S. New RPMI-1640 medium with different concentrations of MI (20 to 0.62 µg/ml) was added to each well and incubated at 33°C, 5% CO2 during 48 h. The anti-leishmanial activity of MI was determined by measuring the fluorescence of intracellular amastigotes of L. amaz/tc3 in a plate reader (Tecan, Männedorf, Switzerland). The viability was calculated as mentioned above, and the IC50 was also estimated. Simultaneously, the leishmanicidal activity of MI against L. amaz/wt was determined by the microscopy test. In this case, the infected macrophages were stained with Diff Quik (Biopur S.R.L., Rosario, Argentina) and the number of intracellular amastigotes was determined in 200-500 macrophages in treated and control cultures per slide under the immersion lens microscope (100x) (Leitz Wetzlar, Germany). The infection index (II) and the % infectivity (I) were calculated by the following formulas: II = IM × A, where IM= infected macrophages (%), A= number of amastigotes per infected macrophages; and I(%)=IIT/IIc×100, where IIT= infection index in treated cultures, IIC= infection index in control cultures ([Ayres et al., 2008]). The IC50 of MI was calculated.
Then, to estimate the IC50 values of GAL, FI and MO; and to confirm the IC50 of RU, the activity was evaluated quantifying the intracellular amastigotes at the optic microscope. We followed the same methodology described for MI (microscopic assay) in “In Vitro, Fluorescent Assay Validation” section and the range of concentrations were for GAL (30 to 7.5 µM), FI (60 to 15 µM), RU and MO (200 to 50 µM), EGCG (142 a 17.7 µM).

[5] = tested on: intracellular amastigotes of L. amaz/tc3; experiment: Fluorescence assay in the macrophage-amastigote model (Raw 264.7 infected with L. amaz/tc3); type: cell-based, Leishmania (Leishmania) amazonensis
Method: as §1
The flavonoids anti-leishmanial activity was also evaluated against intracellular amastigotes. Macrophages (Raw 264.7) were plated in 96-well black plate (5 x 10^4 cell/well) and infected with promastigotes in stationary phase of L. amaz/tc3 (1:20 ratio) at 33°C, 5% CO2. After incubation, the infected macrophages were washed to remove non-internalized parasites with PBS plus P-S. New RPMI-1640 medium with different concentrations of GAL (30 to 3.75 µM), MO (300 to 37.5 µM), FI (65 to 8.12 µM), RU (300 to 37.5 µM) and EGCG (30 to 7.5 µM) was added to each well and incubated at 33°C, 5% CO2 for 48 h. Infected cells treated with Ma (136.6 to 34.1 µM) were the positive controls, and cells incubated only with RPMI-1640 were the negative control. The infected macrophages were incubated during 48 h at 33°C, 5% CO2. After treatment, the fluorescence of intracellular amastigotes of L. amaz/tc3 was measured in a plate reader (Tecan, Männedorf, Switzerland). The viability was determined as was described for MI (fluorescent assay). The selectivity index (SI) (CC50 for macrophages/IC50 for Leishmania) was calculated.

[6] = tested on: promastigotes of L. (L.) amazonensis; parameters: method as in Escobar et al., 2002; Morais-Teixeira et al., 2011; conditions: published data ref Escobar et al., 2002; Morais-Teixeira et al., 2011; cited from earlier work
[7] = tested on: amastigotes of L. (L.) amazonensis; parameters: method as in Escobar et al., 2002; Morais-Teixeira et al., 2011; conditions: published data ref Escobar et al., 2002; Morais-Teixeira et al., 2011; cited from earlier work
L. amaz/tc3 = experiment: Efficacy of Ma in BALB/c mice infected with L. amaz/tc3; type: in vivo
Method: Female BALB/c mice were infected in their hind right footpad with the stationary phase of promastigotes (5 x 10^6 parasites/0.05 ml) of L. amaz/tc3. Once a week the footpad swelling was measured with the digital caliper. Mice (n = 5) were treated with Ma in PBS (120 mg Sb/kg/day) starting at week 9 post-infection; the antimonial was administered by intraperitoneal injection (ip) once a day for 21 days. Control group (n = 5) received only PBS (ip). Within a week of finishing the Ma treatment, the parasite load was quantified by three methods, fluorescence (FL), optic microscope (OM) and limiting dilution assay (LD) in treated and control group. The FL method was carried out as follows, the hind right footpad was excised and weighed; then the tissue was homogenized using a glass grinder with 5 ml of complete RPMI-1640 medium and the intracellular amastigotes of L. amaz/tc3 were released. A sample (0.1 ml) of the homogenate was centrifuged to replace the medium for PBS, then it was plated in duplicates in a 96-well black culture plate with clear bottom (Nunc, USA) and the fluorescence was measured in a plate reader (Tecan, Männedorf, Switzerland). Besides, a calibration curve was used to extrapolate the sample fluorescence to the number of amastigotes. For that, a pool of amastigotes from control samples was used; amastigotes (1 x 10^6 to 1.5 x 10^4) were plated in duplicates in a 96-well black culture plate with clear bottom, and the fluorescence was measured in a plate reader (Tecan, Männedorf, Switzerland). The number of amastigotes was adjusted to the weight of the sample.
Another sample of the tissue homogenate was used to quantify the parasite loads by direct counting in a Neubauer chamber under an optical microscope (40X) (Leitz Wetzlar, Germany), and the concentration of parasites (amastigotes/ml) of each homogenate was determined ([Hill et al., 1983]). The total number of parasites was adjusted to the weight of each tissue sample.
Finally, a sample of the tissue homogenate was also used to quantify the parasite loads by the LD assay ([Lima et al., 1997]). After serial dilutions in 96-well plates, the samples were incubated at 23°C for 14 days and the number of viable promastigotes was determined from the highest dilution at which the parasite could grow.

[8] = Raw 264.7 macrophage cell line, Raw 264.7, MTT, 48 h, read-out: Colorimetric CC50 μM (SE)
[9] = read-out: IC50 against promastigotes of L. amaz/tc3
[10] = 120 mg Sb/kg/day ip, 21 days, week 13, footpad

O=C(O[C@@H]1Cc2c(O)cc(O)cc2O[C@@H]1c1cc(O)c(O)c(O)c1)c1cc(O)c(O)c(O)c1 [EGCG, (-)-epigallocatechin gallate, reference compound]
CC50 at 48 h [1, 8]: 194 µM
IC50 [2, 9]: 120 ± 17.6 µM
Ultrastructural alterations in promastigotes (TEM) [3]: intense cytoplasmic vacuolization
SI (Selectivity index) [4]: 1.5
IC50 [4]: 130 µM

O=c1c(O)c(-c2ccc(O)c(O)c2)oc2cc(O)ccc12 [FI, fisetin]
CC50 at 48 h [1, 8]: 52.6 µM
Fluorescence Inhibition (%) of amastigotes ([5]; 15 µM, 48 h): 31%
inhibition at 15 µM ([5]; Leishmania, RAW264.7, 48 h, read-out: Fluorescence Inhibition (%) of amastigotes, 15 µM, 48 h): 29 to 31%
Inhibition of parasite growth (promastigotes) [2]: no inhibition
SI (Selectivity index) [4]: < 1
IC50 [4]: > 60 µM

CCCCCCCCCCCCCCCCOP(=O)([O-])OCC[N+](C)(C)C [MI, Miltefosine, reference compound]
Effective dose for promastigotes [6]: 7.54 µg/mL
IC50 ([5]; Leishmania, RAW264.7, 48 h, read-out: IC50 against intracellular amastigotes): 1.65 ± 0.75 µg/mL
IC50 ([2]; read-out: IC50 against promastigotes): 5.25 ± 0.05 µg/mL
Effective dose for amastigotes [7]: 1.31 µg/mL

O=c1c(O)c(-c2ccc(O)cc2O)oc2cc(O)cc(O)c12 [MO, morin]
CC50 at 48 h [1, 8]: > 230 µM
inhibition at 37.5 µM ([5]; Leishmania, RAW264.7, 48 h, read-out: Fluorescence Inhibition (%) of amastigotes, 37.5 µM, 48 h): 13.5%
Inhibition of parasite growth (promastigotes) [2]: no inhibition
SI (Selectivity index) [4]: > 1.8
IC50 [4]: 122 µM

N=C(N)c1ccc(OCCCCCOc2ccc(C(=N)N)cc2)cc1 [PE, Pentamidine isethionate, reference compound]
IC50 [2, 9]: 0.67 ± 0.18 µM

C[C@@H]1O[C@@H](OC[C@H]2O[C@@H](Oc3c(-c4ccc(O)c(O)c4)oc4cc(O)cc(O)c4c3=O)[C@H](O)[C@@H](O)[C@@H]2O)[C@H](O)[C@H](O)[C@H]1O [RU, rutin]
CC50 at 48 h [1]: > 240 µM
IC50 ([5]; Leishmania, RAW264.7, 48 h, read-out: Fluorescence IC50 μM (SE), intracellular amastigotes): 171 µM
Inhibition of parasite growth (promastigotes) [2]: no inhibition
SI (Selectivity index) [4]: > 1.8
IC50 [4]: 133 µM

Meglumine antimoniate [Ma]
IC50 ([5]; Raw 264.7 macrophages, 48 h, 33°C, read-out: Fluorescence IC50 μM (SE), intracellular amastigotes): 80.3 µM
Inhibition of parasite burden, fluorescence method (FL) (L. amaz/tc3; [10]): 55%
Inhibition of parasite burden, limiting dilution (LD) assay (L. amaz/tc3; [10]): 54%
Inhibition of parasite burden, optic microscope (OM) (L. amaz/tc3; [10]): 75%
Footpad swelling versus control group (L. amaz/tc3; 120 mg Sb/kg/day ip, week 13, p < 0.05): significant difference
Percentage of inhibition in the parasite load, fluorescence and LD assay (L. amaz/tc3; end of treatment, both methods): 54-55%

From publication PMC8213385, “Development of a Fluorescent Assay to Search New Drugs Using Stable tdTomato-Leishmania, and the Selection of Galangin as a Candidate With Anti-Leishmanial Activity” (Frontiers in Cellular and Infection Microbiology, 2021)
